# Measurements as given in PMC4349960, “[^18F]FE@SUPPY: a suitable PET tracer for the adenosine A3 receptor? An in vivo study in rodents” (European Journal of Nuclear Medicine and Molecular Imaging, 2015).
# Where “and” joins values, the source holds several entries; their conditions need not be identical. Equal values may be shown once.
# Key:
# [1] = design: method as in PMID 18158944; details: cited from earlier work
# [2] = In vitro plasma stability, rat plasma; type: in vitro ADME
# Protocol: Experiments were conducted following a standard protocol. Briefly, [^18F]FE@SUPPY was added to lithium-heparinized human or rat plasma and after predetermined times (0, 60 and 120 min), the incubation mixture was eluted through a preconditioned SPE cartridge. The washed and newly eluted eluate solutions were injected into the radio-HPLC system (HPLC system as described in the section Ex vivo stability). The stationary phase was an analytical HPLC column LiChrospher LICHROCART® RP-18e (5 μm), 125 × 4 mm precolumn, and the mobile phase consisted of sodium citrate tribasic dehydrate (buffered at 0.034 M, pH 2.5)/acetonitrile 32:68 at a flow rate of 2 mL/min. Samples were incubated with a Thermomixer Compact from Eppendorf (Vienna, Austria) and centrifuged with a Universal 30 RF centrifuge from Hettich (Tuttlingen, Germany).
# P-gp = assay: Small-animal PET in rats: efflux (P-gp) inhibition; type: in vivo
# Text: A microPET Focus220 scanner (Siemens, Medical Solutions) was used for the experiments. […] The resolution of the reconstructed images (filtered back projection) was 1.3 mm (full-width at half-maximum) in the central field of view and remained under 2 mm within the central 5 cm diameter field of view [15]. For PET imaging two groups of animals (rats and xenografted mice) were investigated. Rats were divided into four groups.
# Anaesthetized animals were positioned in the imaging chamber of the microPET scanner, which was kept at 38 °C throughout the experiment. […]
# For all PET scans (rats and xenografted mice), list mode data were acquired with an energy window of 350 – 750 keV (rats) or 250 – 750 keV (mice) and a 6-ns timing window. Before each PET scan, a transmission scan using a ^57Co point source was recorded over 10 min. […] A calibration factor for converting units of microPET images into absolute radioactivity concentration units was first generated by imaging a phantom filled with a known concentration of [^18F]FDG.
# Rat brains were manually outlined on multiple planes of the PET summation images using the image analysis software PMOD 3.1 (Pmod Ltd, Zürich, Switzerland) or Amide [18]. […] To facilitate comparison of TACs of different animals, radioactivity concentrations were normalized to dose and weight and expressed as standardized uptake value (SUV, %ID/cm^3 or %ID/g). […]
# [3] = Ex vivo stability/metabolism in rat plasma and brain after pretreatment; design: species or system rats; details: for Brain to blood uptake ratio / %ID/g at 60 min, Blood (plasma) / %ID/g at 60 min, Brain / Unchanged [^18F]FE@SUPPY at 60 min, Blood (plasma) / Unchanged [^18F]FE@SUPPY at 60 min, Brain: rats
# Protocol: To determine the influence of the four treatments (vehicle, MRS1523, FE@SUPPY, TQD) on uptake of [^18F]FE@SUPPY, stability was assessed in plasma and brain 60 min after tracer injection. Final blood samples (3 mL) were collected in heparin-buffered tubes, rat brains were washed with ice-cold water and homogenized in 0.9 % aqueous NaCl solution (1 mL) using an IKA T10 basic Ultra-turrax (IKA Laboratory Equipment, Staufen, Germany). […] Sample clean-up was performed by vortexing plasma with the equivalent amount of methanol/acetonitrile (9:1) for 1 min and by subsequent ultracentrifugation (10,000 rpm, 5 min) to remove precipitated proteins. The supernatants obtained were analysed by radio-HPLC (Agilent, Boeblingen, Germany) equipped with a series 1100 autosampler, a series 1200 quaternary pump, a series 1200 diode array detector and a lead-shielded BGO radiodetector. A Chromolith® Performance RP-18e (100 × 4.6 mm, 5 μm) column with a Chromolith® Performance RP-18e (4 x4 mm, 5 μm) precolumn was eluted at a flow rate of 2 mL/min using a mobile phase consisting of 60 % acetonitrile and 40 % water/acetic acid 97.5:2.5 and 32 mM ammonium acetate, pH 3.5. UV detection was performed at a wavelength of 254 nm. The retention time of [^18F]FE@SUPPY was 4.6 – 5.9 min (UV detection and radiodetection).
# [4] = design: method as in PMID 20447552; details: rats, 30 min after injection; cited from earlier work
# [5] = design: method as in doi:10.2174/1876388X00901010015; details: cited from earlier work
# A3R = test system: A3R; design: method as in PMID 20447552; details: cited from earlier work
# [6] = pretreatment unlabelled FE@SUPPY
structure (smiles),measurement,setting,value
"CCSC(=O)c1c(CC)nc(-c2ccccc2)c(C(=O)OCC[18F])c1CC [[^18F]FE@SUPPY, 5-(2-[^18F]fluoroethyl)-2,4-diethyl-3-(ethylsulfanylcarbonyl)-6-phenylpyridine-5-carboxylate]",Biodistribution in rats,[1],Followed mainly A3 pattern (except testes) [3]
same,Bone uptake in rats,[1],None [3]
same,Brain to blood uptake ratio in biodistribution experiments,[1]; rats,up to 5.4
same,brain-to-blood ratios over time,[1]; rats,increase over time
same,radioactivity from metabolites in rat plasma,[2]; 60 min,18.7 ± 3%
same,radioactivity from metabolites in rat plasma,[2]; 120 min,35.0 ± 4%
same,radioactive metabolites in rat plasma over the observation period,[2]; observation period of 120 min,19 – 35%
same,peak brain activity,"P-gp; TQD-treated group (15 mg/kg, 60 min before tracer)",1.53 ± 0.01 SUV
same,peak brain activity,P-gp; untreated group,1.56 ± 0.22 SUV
same,Ex vivo metabolites in rats (where found),[3]; 60 min after tracer injection,Blood and brain
same,Brain to blood uptake ratio,[3]; baseline,5.2
same,"%ID/g at 60 min, Blood (plasma)",[3]; pretreatment DMSO,0.022 ± 0.003 %ID/g and 0.0216 ± 0.003 %ID/g
same,"%ID/g at 60 min, Brain",[3]; pretreatment DMSO,0.1132 ± 0.0002 %ID/g
same,"Unchanged [^18F]FE@SUPPY at 60 min, Blood (plasma)",[3]; pretreatment DMSO,25.8 ± 5.3% and 25.81 ± 5.3%
same,"Unchanged [^18F]FE@SUPPY at 60 min, Brain",[3]; pretreatment DMSO,43.7 ± 9.5%
same,Brain to blood uptake ratio,[3]; pretreatment FE@SUPPY,7.9
same,"%ID/g at 60 min, Blood (plasma)",[3]; pretreatment MRS1523,0.0145 ± 0.002 %ID/g
same,"%ID/g at 60 min, Brain",[3]; pretreatment MRS1523,0.0918 ± 0.0001 %ID/g
same,"Unchanged [^18F]FE@SUPPY at 60 min, Blood (plasma)",[3]; pretreatment MRS1523,26.5 ± 1.4% and 26.54 ± 1.4%
same,"Unchanged [^18F]FE@SUPPY at 60 min, Brain",[3]; pretreatment MRS1523,37.8 ± 4.3% and 37.75 ± 4.3%
same,"%ID/g at 60 min, Blood (plasma)",[3]; pretreatment TQD,0.0214 ± 0.004 %ID/g
same,"%ID/g at 60 min, Brain",[3]; pretreatment TQD,0.1507 ± 0.0005 %ID/g
same,"Unchanged [^18F]FE@SUPPY at 60 min, Blood (plasma)",[3]; pretreatment TQD,39.9 ± 4.7% and 39.87 ± 4.7%
same,"Unchanged [^18F]FE@SUPPY at 60 min, Brain",[3]; pretreatment TQD,55.2 ± 7.0% and 55.21 ± 7.0%
same,"%ID/g at 60 min, Blood (plasma)",[3]; [6],0.0160 ± 0.002 %ID/g
same,"%ID/g at 60 min, Brain",[3]; [6],0.1273 ± 0.0000 %ID/g
same,"Unchanged [^18F]FE@SUPPY at 60 min, Blood (plasma)",[3]; [6],32.4 ± 5.6%
same,"Unchanged [^18F]FE@SUPPY at 60 min, Brain",[3]; [6],49.6 ± 9.4% and 49.64 ± 9.4%
same,metabolites in brain,[4],no metabolites
same,parent compound left in plasma,[4],30%
same,logP assessment,[5],high lipophilicity
same,HPLClogD^7.4,[5]; pH 7.4,4.04
same,Autoradiography in humans and rats,A3R,High selectivity; FE@SUPPLY comparable with MRS1523 [12]
